The target in data set [1] is T1, Albumin (Bos taurus, UniProt P02769). Nature of the data set: Plasma protein binding in bovine serum albumin assessed as fraction bound at 10:1 ratio of compound and BSA by 1H DOSY NMR spectrophotometric analysis. The conditions noted are these: cattle, read-out: PPB (converted). The format is ADME.
The target in data set [2] is T1, Albumin. Nature of the data set: Plasma protein binding in bovine serum albumin assessed as fraction bound at 5:1 ratio of compound and BSA by 1H DOSY NMR spectrophotometric analysis. The format is ADME. The conditions noted are these: cattle, read-out: PPB (converted).
Data set [3] addresses T1, Albumin. The experiment in a line: Plasma protein binding in bovine serum albumin assessed as fraction bound at 20:1 ratio of compound and BSA by 1H DOSY NMR spectrophotometric analysis. The format is ADME. The conditions noted are these: cattle, read-out: PPB (converted).
Data set [4] has as its target Albumin (Homo sapiens, UniProt P02768). Nature of the data set: Plasma protein binding in human albumin at 1 to 20 ug/ml incubated for 30 mins. The format is ADME. The conditions noted are these: at 1 to 20 µg/mL, dose 1-20 µg/ml, read-out: PPB (converted).
Data set [5] can be described thus: Plasma protein binding in human plasma incubated for 18 hrs by equilibrium dialysis.

T1 sequence (P02769 whole entry): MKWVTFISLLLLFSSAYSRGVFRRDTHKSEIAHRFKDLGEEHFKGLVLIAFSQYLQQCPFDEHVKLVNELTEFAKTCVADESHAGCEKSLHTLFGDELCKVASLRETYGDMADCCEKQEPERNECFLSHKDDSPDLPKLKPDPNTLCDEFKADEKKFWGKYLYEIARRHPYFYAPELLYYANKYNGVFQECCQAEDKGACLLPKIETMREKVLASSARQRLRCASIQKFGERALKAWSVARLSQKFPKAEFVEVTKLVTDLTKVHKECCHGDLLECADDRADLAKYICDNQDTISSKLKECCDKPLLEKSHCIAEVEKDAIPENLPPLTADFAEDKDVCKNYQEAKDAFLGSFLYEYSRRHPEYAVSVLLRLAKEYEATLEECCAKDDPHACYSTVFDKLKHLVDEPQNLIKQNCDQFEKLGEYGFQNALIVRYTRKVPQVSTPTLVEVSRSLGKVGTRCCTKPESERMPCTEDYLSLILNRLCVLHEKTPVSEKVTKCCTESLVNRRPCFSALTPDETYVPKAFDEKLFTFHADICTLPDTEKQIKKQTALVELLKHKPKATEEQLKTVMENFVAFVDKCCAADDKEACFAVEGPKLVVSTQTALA
Chain of Albumin (Homo sapiens, UniProt P02768) (P02768 whole entry): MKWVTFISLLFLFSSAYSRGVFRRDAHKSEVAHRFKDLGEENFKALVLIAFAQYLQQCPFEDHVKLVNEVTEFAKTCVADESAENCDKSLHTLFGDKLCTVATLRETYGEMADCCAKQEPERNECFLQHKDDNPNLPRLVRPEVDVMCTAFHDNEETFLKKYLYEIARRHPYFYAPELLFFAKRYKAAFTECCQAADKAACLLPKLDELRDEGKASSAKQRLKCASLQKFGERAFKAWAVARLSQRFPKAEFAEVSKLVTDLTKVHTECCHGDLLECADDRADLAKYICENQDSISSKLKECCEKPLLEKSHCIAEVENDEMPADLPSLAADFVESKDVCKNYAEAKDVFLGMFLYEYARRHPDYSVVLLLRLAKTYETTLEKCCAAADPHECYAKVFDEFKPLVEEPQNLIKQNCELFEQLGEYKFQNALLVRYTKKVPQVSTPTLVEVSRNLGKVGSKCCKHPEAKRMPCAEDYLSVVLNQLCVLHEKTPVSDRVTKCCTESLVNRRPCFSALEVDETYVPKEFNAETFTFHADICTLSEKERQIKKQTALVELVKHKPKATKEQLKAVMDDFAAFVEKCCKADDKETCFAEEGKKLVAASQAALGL

`OC[C@H]1OC(O)[C@H](O)[C@@H]1O` (some centres not stated): the fraction unbound was 0.25 at Albumin [1], 0.11 on Albumin [2] and 0.36 at Albumin [3].

Turning to `CC(=O)Oc1ccccc1C(=O)O` [ASPIRIN], the results for the fraction unbound on Albumin [1], at Albumin [2] and at Albumin [3] were 0.16, 0.1 and 0.48, respectively.

Consider `Cn1c(=O)c2c(ncn2C)n(C)c1=O` [CAFFEINE], for which the results for the fraction unbound at Albumin [1], at Albumin [2] and at Albumin [3] were 0.67, 0.27 and 0.71, respectively. Moreover, the fraction unbound at 0.5 h at Albumin [4] was 0.625.

As for `CN/C(=N/CCSCc1nc[nH]c1C)NC#N` [CIMETIDINE], the fraction unbound is 0.66 at Albumin [1], 0.42 on Albumin [2] and 0.74 at Albumin [3].

On to `COc1ccc2nc([S@@+]([O-])Cc3ncc(C)c(OC)c3C)[nH]c2c1` [ESOMEPRAZOLE], for which the results for the fraction unbound at Albumin [1] and on Albumin [3] were 0.02 and 0.04, respectively.

Regarding `N[C@H]1C(O)O[C@H](CO)[C@@H](O)[C@@H]1O` (some centres not stated) [GLUCOSAMINE], the fraction unbound is 0.46 on Albumin [1], 0.26 at Albumin [2] and 0.71 on Albumin [3].

Consider `CC(C)NCC(O)COc1cccc2ccccc12` (configuration not stated) [PROPRANOLOL], for which the results for the fraction unbound on Albumin [1], at Albumin [2] and at Albumin [3] were 0.41, 0.21 and 0.49, respectively. The fraction unbound at 18 h in data set [5] is 0.14.

The values above are taken from ChEMBL document CHEMBL5576113, “A method for estimation of plasma protein binding using diffusion ordered NMR spectroscopy (DOSY)” (RSC Med Chem, 2024).
